Test results taken from ChEMBL document CHEMBL1150109, “New cytotoxic coumarins and prenylated benzophenone derivatives from the bark of Ochrocarpos punctatus from the Madagascar rainforest” (J Nat Prod, 2002).
Values after ≈ are worked out from the molar mass of the structure shown.

System: A2780
Test: Cytotoxicity against human A2780 cells
Format: functional, cell-based

CC(C)C(=O)c1c2c(c3oc(=O)cc(-c4ccccc4)c3c1O)C=CC(C)(C)O2 [MESUAGIN]
IC50: 10.8 µg/mL (≈ 27.7 µM)

CC(C)CC(=O)c1c2c(c3oc(=O)cc(-c4ccccc4)c3c1O)CC(C(C)(C)O)O2 (stereo unspecified)
IC50: 6.4 µg/mL (≈ 15.1 µM)

CC(C)=CCC1CC2(CC=C(C)C)C(=O)C3=C(OC(C(C)(C)O)C3)C(C(=O)c3ccccc3)(C2=O)C1(C)C (stereo unspecified) [OCHROCARPINONE B]
IC50: 7.4 µg/mL (≈ 14.3 µM)

CC[C@H](C)C(=O)c1c2c(c3oc(=O)cc([C@@H](CC)OC(C)=O)c3c1O)CC(C(C)(C)O)O2 (stereo partly specified) [OCHROCARPIN F]
IC50: 8.9 µg/mL (≈ 19.9 µM)

CC[C@H](C)C(=O)c1c(O)c2c(-c3ccccc3)cc(=O)oc2c2cc(C(C)(C)OC)oc12 [OCHROCARPIN D]
IC50: 6.3 µg/mL (≈ 14.5 µM)

CCC(OC(C)=O)c1cc(=O)oc2c3c(c(C(=O)[C@@H](C)CC)c(O)c12)OC(C(C)(C)O)C3 (single isomer, unassigned) [OCHROCARPIN G]
IC50: 8.6 µg/mL (≈ 19.3 µM)

CCCC(=O)c1c2c(c3oc(=O)cc(-c4ccccc4)c3c1O)CC(C(C)(C)O)O2 (stereo unspecified)
IC50: 4.4 µg/mL (≈ 10.8 µM)

CC(C)=CCC1CC2(CC=C(C)C)C(=O)C(C(=O)c3ccccc3)(C(=O)C3=C2OC(C(C)(C)O)C3)C1(C)C (stereo unspecified) [OCHROCARPINONE C]
IC50: 8.2 µg/mL (≈ 15.8 µM)

CC(C)C(=O)c1c(O)c2c(-c3ccccc3)cc(=O)oc2c2cc(C(C)(C)O)oc12 [OCHROCARPIN C]
IC50: 3.7 µg/mL (≈ 9.1 µM)

CC(C)=CCC1CC2(CC=C(C)C)C(=O)C3=C(OC(C)(C)C(OO)C3)C(C(=O)c3ccccc3)(C2=O)C1(C)C (stereo unspecified)
IC50: 8.4 µg/mL (≈ 15.7 µM)

CC(C)C(=O)c1c(O)c2c(c3c(-c4ccccc4)cc(=O)oc13)OC(C(C)(C)O)C2 (stereo unspecified) [OCHROCARPIN E]
IC50: 4.9 µg/mL (≈ 12 µM)

CC(C)=CCC1CC2(CC=C(C)C)C(=O)C(C(=O)c3ccccc3)(C(=O)C3=C2OC(C)(C)C(OO)C3)C1(C)C (stereo unspecified) [OCHROCARPINONE A]
IC50: 6.9 µg/mL (≈ 12.9 µM)

CC[C@H](C)C(=O)c1c(O)c2c(-c3ccccc3)cc(=O)oc2c2cc(C(C)(C)O)oc12 [OCHROCARPIN A]
IC50: 5.2 µg/mL (≈ 12.4 µM)

CCC(C)C(=O)c1c2c(c3oc(=O)cc(-c4ccccc4)c3c1O)CC(C(C)(C)O)O2 (stereo unspecified)
IC50: 8.2 µg/mL (≈ 19.4 µM)

CC(C)CC(=O)c1c(O)c2c(-c3ccccc3)cc(=O)oc2c2cc(C(C)(C)O)oc12 [OCHROCARPIN B]
IC50: 3.8 µg/mL (≈ 9.04 µM)

CCC(C)C(=O)c1c2c(c3oc(=O)cc(-c4ccccc4)c3c1O)C=CC(C)(C)O2 (stereo unspecified)
IC50: 4.5 µg/mL (≈ 11.1 µM)
